How the values were obtained:
[1] = system: JEG-3 cells; test: [3H]-thymidine incorporation in JEG-3 cells (JEG-3 protocol); assay type: cell-based; conditions: JEG-3 choriocarcinoma cell line, FIG. 6
Experimental: In JEG-3 cells (choriocarcinoma cell line) leptin is able to stimulate proliferation up to 3 fold (Biol. Reprod. (2007) 76: 203-10). […] The radioactivity incorporated by the cells is an index of their proliferative activity and is measured in counts per minute (CPM) with a liquid scintillation beta counter.
This finding can be applied to test whether a compound is able to either reproduce the effect of leptin on cell proliferation (leptin receptor agonist mimetic) (i.e., a given compound will cause an increase in incorporated [^3H]-Thymidine by the cells) or to inhibit the effect of leptin (antagonistic effect) by preventing the leptin-mediated increase in [^3H]-thymidine incorporation.

[2] = system: JEG-3 cells; conditions: Biol. Reprod. (2007) 76: 203-10; cited from earlier work

EC50 ([1]; read-out: EC50 of concentration-dependent increase in [3H]-thymidine incorporation): 2.1 nM
Substance: leptin: hormone synthesized in fat cells that is believed to act in the hypothalamus to reduce food intake and body weight
concentration of maximal effect on [3H]-thymidine incorporation [1]: 100 nM
stimulation of proliferation [2]: up to 3 fold

From patent US8093248B2, “Compounds useful for the treatment of conditions associated with weight gain” (AstraZeneca AB (PUBL), priority 2007, dated 2012)
